Source: US4607024A, “Epoxypropylphosphonate salt of jesamycin and pharmaceutical composition containing same” (Schering S.p.A., priority 1983, dated 1986)
Where a name gives a salt, the structure may show the parent alone. Read-outs that look alike come from different tables or passages of the source.

Tests used:
[1] = parameters: species or system New Zealand rabbits; details: rabbit, in vivo, po; for haematic levels of Josamycin at the 6th hour: 6 h
Description: The determination of the Josamycin levels was performed both by biological way (Grove, D. C., and Randall, W. A., 1955) and by High Pressure Liquid Chromatography (HPLC).

in vivo [2] = test: in vivo; parameters: species or system Wistar rats of both sexes; details: rat, rats
Description: (§1) The acute toxicity of the compound of the invention was determined on mice and rats (Swiss mice of both sexes and Wistar rats of both sexes), after oral and intravenous administration of the compound of the invention. It was expressed as an LD50 value, calculated according to the method of Lichtfield and Wilcoxon. The obtained intravenous values were 418 mg/kg in rats and 386 mg/kg in mice.

in vivo [3] = test: in vivo; parameters: species or system Swiss mice of both sexes; details: mouse, mice
Description: as §1

male Wistar rats = test: Chronic toxicity, 3 months; type: in vivo; details: 250 mg/kg daily oral or 50 mg/kg daily subcutaneous, body weight, haematic crasis, urinary elimination, biochemical parameters, anatomo-pathology
Description: Three groups of male Wistar rats (average weight: 155 g) were used in this experiment. A first group received a daily dosage of 250 mg/kg of the compound to be tested by oral route, a second group received a daily amount of 50 mg/kg of the same substance by subcutaneous route, a third group (controls) received nothing. The experiment was carried on for 3 consecutive months.
Since the beginning, as well as during and after the treatment, the animals were constantly monitored with respect to the increase in body weight, the haematic crasis, the urinary elimination and various biochemical parameters. At the end of the treatment, all the animals were sacrificed and subjected to anatomo-pathological investigations.

pregnant rats = test: Teratological investigation in pregnant rats; type: in vivo; details: 50 mg/kg s.c. or 300 mg/kg p.o. daily, 1st to 15th day of pregnancy
pregnant rabbits = test: Teratological investigation in pregnant rabbits; type: in vivo; details: 50 mg/kg s.c. or 300 mg/kg p.o. daily, 7th to 15th day of pregnancy
newborns = test: Neonatal investigation (growth and survival of the newborns); type: in vivo; details: 30 days from birth, versus controls
[4] = Absorption, haematic and tissue levels (general statement); type: in vivo
[5] = tested on: Josamycin-sensitive bacteria; test: Antibacterial spectrum in vitro, agar dilution method; type: cell-based; details: versus Josamycin
[6] = tested on: Josamycin-sensitive bacteria; test: Antibacterial spectrum in vivo, infected mice; details: versus Josamycin
Solubility in water = type: physicochemical
[7] = Toxicity (general statement)
[8] = tested on: Josamycin-sensitive bacteria; test: Antibacterial spectrum (general statement); details: versus Josamycin
[9] = oral, could not be determined, no deaths up to 5000 mg/kg, read-out: oral LD50

SMILES | haematic levels of Josamycin at the 6th hour [1] | LD50 (in vivo [2]; intravenous, read-out: LD50) | LD50 (in vivo [2]; [9]) | LD50 (in vivo [3]; intravenous, read-out: LD50) | LD50 (in vivo [3]; [9]) | alteration of toxic character (male Wistar rats) | alteration of the normal embrional or fetal development (pregnant rats) | alteration of the normal embrional or fetal development (pregnant rabbits) | growth and survival of the newborns (newborns) | duration of haematic levels [1] | absorption ([4]; oral route) | duration of tissue and haematic levels ([4]; oral route) | tissue and haematic levels relative to equivalent amounts of Josamycin ([4]; oral, versus free base and propionate) | haematic levels of Josamycin relative to equivalent dosages of Josamycin ([4]; versus free base and propionate) | antibacterial spectrum [5] | antibacterial spectrum [6] | solubility in water (Solubility in water) | toxicity [7] | antibacterial spectrum [8]
CO[C@@H]1[C@@H](O[C@@H]2O[C@H](C)[C@@H](O[C@H]3C[C@@](C)(O)[C@@H](OC(=O)CC(C)C)[C@H](C)O3)[C@H](N(C)C)[C@H]2O)[C@@H](CC=O)C[C@@H](C)[C@@H](O)/C=C/C=C/C[C@@H](C)OC(=O)C[C@H]1OC(C)=O [Josamycin, reference compound] | 0.139 µg/mL | – | – | – | – | – | – | – | – | – | – | – | – | – | – | – | – | – | –
CO[C@@H]1[C@@H](O[C@@H]2O[C@H](C)[C@@H](O[C@H]3C[C@@](C)(O)[C@@H](OC(=O)CC(C)C)[C@H](C)O3)[C@H](N(C)C)[C@H]2O)[C@@H](CC=O)C[C@@H](C)[C@@H](O)/C=C/C=C/C[C@@H](C)OC(=O)C[C@H]1OC(C)=O [salt of formula (I), salt of the macrolide antibiotic Josamycin with (-)-cis-1,2-epoxypropyl phosphonic acid] | 0.297 µg/mL | 418 mg/kg | > 5000 mg/kg | 386 mg/kg | > 5000 mg/kg | did not reveal any alteration of toxic character | did not cause any alteration of the normal embrional or fetal development | did not cause any alteration of the normal embrional or fetal development | comparable with those of the controls | longer lasting | highly absorbed | significantly long lasting | nearly twice | twice | comparable with that of Josamycin | comparable with that of Josamycin | high solubility in water | very little toxic | comparable with that of Josamycin
